This assay has as its system microfilariae of Dirofilaria immitis. Briefly: Dirofilaria immitis, Microfilaria (DiMF) In vitro Assay. The assay is classed as cell-based. Particulars: 72 h, read-out: DiMF Minimum Effective Dose (MED), approximately 72 hours incubation, microfilariae assessed for survival or paralysis.

As for `CC(C)C[C@H]1C(=O)O[C@H](Cc2ccc(Cn3ccc(Br)n3)cc2)C(=O)N(C)[C@@H](CC(C)C)C(=O)O[C@H](C)C(=O)N(C)[C@@H](CC(C)C)C(=O)O[C@H](Cc2ccc(Cn3ccc(Br)n3)cc2)C(=O)N(C)[C@@H](CC(C)C)C(=O)O[C@H](C)C(=O)N1C` [Example 1b-63, (3S,6R,9S,12R,15S,18R,21S,24R)-6,18-bis(4-((3-bromo-1H-pyrazol-1-yl)methyl)benzyl)-3,9,15,21-tetraisobutyl-4,10,12,16,22,24-hexamethyl-1,7,13,19-tetraoxa-4,10,16,22-tetraazacyclotetracosan-2,5,8,11,14,17,20,23-octaone], the minimal effective concentration lay within 0.01 to 0.1 µM. Consider `CCc1nccn1Cc1ccc(C[C@H]2OC(=O)[C@H](CC(C)C)N(C)C(=O)[C@@H](C)OC(=O)[C@H](CC(C)C)N(C)C(=O)[C@@H](Cc3ccc(Cn4ccnc4CC)cc3)OC(=O)[C@H](CC(C)C)N(C)C(=O)[C@@H](C)OC(=O)[C@H](CC(C)C)N(C)C2=O)cc1` [Example 6-4, (3S,6R,9S,12R,15S,18R,21S,24R)-6,18-bis[[4-[(2-ethylimidazol-1-yl)methyl]phenyl]methyl]-3,9,15,21-tetraisobutyl-4,10,12,16,22,24-hexamethyl-1,7,13,19-tetraoxa-4,10,16,22-tetrazacyclotetracosane-2,5,8,11,14,17,20,23-octaone], for which the minimal effective concentration was in the range of 0.01 to 0.1 µM. For the molecule `CC(C)C[C@H]1C(=O)O[C@H](Cc2ccc(Cn3ccc(-c4ccoc4)n3)cc2)C(=O)N(C)[C@@H](CC(C)C)C(=O)O[C@H](C)C(=O)N(C)[C@@H](CC(C)C)C(=O)O[C@H](Cc2ccc(Cn3ccc(-c4ccoc4)n3)cc2)C(=O)N(C)[C@@H](CC(C)C)C(=O)O[C@H](C)C(=O)N1C` [Example 1b-111, (3S,6R,9S,12R,15S,18R,21S,24R)-6,18-bis(4-((3-(furan-3-yl)-1H-pyrazol-1-yl)methyl)benzyl)-3,9,15,21-tetraisobutyl-4,10,12,16,22,24-hexamethyl-1,7,13,19-tetraoxa-4,10,16,22-tetraazacyclotetracosan-2,5,8,11,14,17,20,23-octaone], the minimal effective concentration lay in the range of 0.01 to 0.1 µM. With `CC(C)C[C@H]1C(=O)O[C@H](Cc2ccc(Cn3ccnc3C(C)C)cc2)C(=O)N(C)[C@@H](CC(C)C)C(=O)O[C@H](C)C(=O)N(C)[C@@H](CC(C)C)C(=O)O[C@H](Cc2ccc(Cn3ccnc3C(C)C)cc2)C(=O)N(C)[C@@H](CC(C)C)C(=O)O[C@H](C)C(=O)N1C` [Example 6-8, (3S,6R,9S,12R,15S,18R,21S,24R)-3,9,15,21-tetraisobutyl-6,18-bis(4-((2-isopropyl-1H-imidazol-1-yl)methyl)benzyl)-4,10,12,16,22,24-hexamethyl-1,7,13,19-tetraoxa-4,10,16,22-tetraazacyclotetracosan-2,5,8,11,14,17,20,23-octaone] the figure was 0.01 to 0.1 µM. The figure for `CC(C)C[C@H]1C(=O)O[C@H](Cc2cccc(Cn3cc(-c4ccccn4)cn3)c2)C(=O)N(C)[C@@H](CC(C)C)C(=O)O[C@H](C)C(=O)N(C)[C@@H](CC(C)C)C(=O)O[C@H](Cc2cccc(Cn3cc(-c4ccccn4)cn3)c2)C(=O)N(C)[C@@H](CC(C)C)C(=O)O[C@H](C)C(=O)N1C` [Example 4-16, (3S,6R,9S,12R,15S,18R,21S,24R)-3,9,15,21-tetraisobutyl-4,6,10,16,18,22-hexamethyl-12,24-bis(3-((4-(pyridin-2-yl)-1H-pyrazol-1-yl)methyl)benzyl)-1,7,13,19-tetraoxa-4,10,16,22-tetraazacyclotetracosan-2,5,8,11,14,17,20,23-octaone] is 0.01 to 0.1 µM; for `Cc1cnn(Cc2ccc(C[C@H]3OC(=O)[C@H](CC(C)C)N(C)C(=O)[C@@H](C)OC(=O)[C@H](CC(C)C)N(C)C(=O)[C@@H](Cc4ccc(Cn5nc(C)c(S(=O)(=O)N6CCCCC6)c5C)cc4)OC(=O)[C@H](CC(C)C)N(C)C(=O)[C@@H](C)OC(=O)[C@H](CC(C)C)N(C)C3=O)cc2)c1` [Example 1a-25, (3S,6R,9S,12R,15S,18R,21S,24R)-6-(4-((3,5-dimethyl-4-(piperidin-1-ylsulfonyl)-1H-pyrazol-1-yl)methyl)benzyl)-3,9,15,21-tetraisobutyl-4,10,12,16,22,24-hexamethyl-18-(4-((4-methyl-1H-pyrazol-1-yl)methyl)benzyl)-1,7,13,19-tetraoxa-4,10,16,22-tetraazacyclotetracosan-2,5,8,11,14,17,20,23-octaone] it is 0.01 to 0.1 µM. With `CC(C)C[C@H]1C(=O)O[C@H](Cc2ccc(Cn3ccc(C(C)C)n3)cc2)C(=O)N(C)[C@@H](CC(C)C)C(=O)O[C@H](C)C(=O)N(C)[C@@H](CC(C)C)C(=O)O[C@H](Cc2ccccc2)C(=O)N(C)[C@@H](CC(C)C)C(=O)O[C@H](C)C(=O)N1C` [Example 2-83, (3S,6R,9S,12R,15S,18R,21S,24R)-6-benzyl-3,9,15,21-tetraisobutyl-18-(4-((3-isopropyl-1H-pyrazol-1-yl)methyl)benzyl)-4,10,12,16,22,24-hexamethyl-1,7,13,19-tetraoxa-4,10,16,22-tetraazacyclotetracosan-2,5,8,11,14,17,20,23-octaone] the figure was 0.01 to 0.1 µM; with `CC(C)C[C@H]1C(=O)O[C@H](Cc2ccc(Cn3nc(C4CC4)c(N)c3C3CC3)cc2)C(=O)N(C)[C@@H](CC(C)C)C(=O)O[C@H](C)C(=O)N(C)[C@@H](CC(C)C)C(=O)O[C@H](Cc2ccccc2)C(=O)N(C)[C@@H](CC(C)C)C(=O)O[C@H](C)C(=O)N1C` [Example 2-85, (3S,6R,9S,12R,15S,18R,21S,24R)-6-(4-((4-amino-3,5-dicyclopropyl-1H-pyrazol-1-yl)methyl)benzyl)-18-benzyl-3,9,15,21-tetraisobutyl-4,10,12,16,22,24-hexamethyl-1,7,13,19-tetraoxa-4,10,16,22-tetraazacyclotetracosan-2,5,8,11,14,17,20,23-octaone], 0.01 to 0.1 µM; with `CC(C)C[C@H]1C(=O)O[C@H](Cc2ccc(Cn3cc(CN)cn3)cc2)C(=O)N(C)[C@@H](CC(C)C)C(=O)O[C@H](C)C(=O)N(C)[C@@H](CC(C)C)C(=O)O[C@H](Cc2ccccc2)C(=O)N(C)[C@@H](CC(C)C)C(=O)O[C@H](C)C(=O)N1C` [Example 2-59, (3S,6R,9S,12R,15S,18R,21S,24R)-6-(4-((4-(aminomethyl)-1H-pyrazol-1-yl)methyl)benzyl)-18-benzyl-3,9,15,21-tetraisobutyl-4,10,12,16,22,24-hexamethyl-1,7,13,19-tetraoxa-4,10,16,22-tetraazacyclotetracosan-2,5,8,11,14,17,20,23-octaone], 0.01 to 0.1 µM. For `CC(C)C[C@H]1C(=O)O[C@H](Cc2ccc(Cn3cc(C(F)F)cn3)cc2)C(=O)N(C)[C@@H](CC(C)C)C(=O)O[C@H](C)C(=O)N(C)[C@@H](CC(C)C)C(=O)O[C@H](Cc2ccc(Cn3cc(C(F)F)cn3)cc2)C(=O)N(C)[C@@H](CC(C)C)C(=O)O[C@H](C)C(=O)N1C` [Example 1b-62, (3S,6R,9S,12R,15S,18R,21S,24R)-6,18-bis(4-((4-(difluoromethyl)-1H-pyrazol-1-yl)methyl)benzyl)-3,9,15,21-tetraisobutyl-4,10,12,16,22,24-hexamethyl-1,7,13,19-tetraoxa-4,10,16,22-tetraazacyclotetracosan-2,5,8,11,14,17,20,23-octaone], the minimal effective concentration was 0.001 to 0.01 µM.

Source of the values: patent US11331369B2, “Endoparasitic depsipeptides” (Zoetis Services LLC, priority 2017, dated 2022).
